For data set [1] the following is noted: cited from earlier work.
The conditions of data set [2]: background statement on promethazine; cited from earlier work.
Data set [3] addresses T1, longitudinal muscle from the intact ileum of guinea-pigs (histamine) (Cavia porcellus, UniProt P31389).
T1 construct: The longitudinal muscle was isolated from the intact ileum of guinea-pigs; from tissue; host or cells: longitudinal muscle of guinea-pig ileum (Hartley, male)
In words: In vitro antihistamine activity: shift of histamine concentration-response curves (Schild plot), isolated guinea-pig ileum longitudinal muscle. Type of data set: cell-based. Conditions: vs histamine, one hour incubation with test compound, 60 min. Here is the method:
A. In vitro antihistamine activity: The longitudinal muscle was isolated from the intact ileum of guinea-pigs (Hartley, male 250-400 g) and placed in an organ bath under 300 mg tension. After one hour of equilibration, cumulative concentration-response curves (Van Rossum, J. M., Arch. Int. Pharmacodyn. Ther. 143, 299-330, 1963) to histamine were obtained. Following washing, the tissues were incubated for one hour with the test compound and then a second histamine concentration-response curve was run. Shifts to the right of the agonist concentration-response curve produced by the antagonists were used to construct Schild plots (Arunlakshana, O. and Schild, H. O., Br. J. Pharmacol. 14, 48-58, 1959). Regression of Log (dr-l) on Log [B], where dr is an equiactive response in the presence and absence of antagonist and [B] is the molar concentration of antagonist, allowed an estimate of pA2, i.e. the negative log of the concentration of antagonist which shifts the control histamine concentration response curve 2X to the right.

Read-outs that look alike come from different tables or passages of the source.

T1 sequence (P31389 whole entry): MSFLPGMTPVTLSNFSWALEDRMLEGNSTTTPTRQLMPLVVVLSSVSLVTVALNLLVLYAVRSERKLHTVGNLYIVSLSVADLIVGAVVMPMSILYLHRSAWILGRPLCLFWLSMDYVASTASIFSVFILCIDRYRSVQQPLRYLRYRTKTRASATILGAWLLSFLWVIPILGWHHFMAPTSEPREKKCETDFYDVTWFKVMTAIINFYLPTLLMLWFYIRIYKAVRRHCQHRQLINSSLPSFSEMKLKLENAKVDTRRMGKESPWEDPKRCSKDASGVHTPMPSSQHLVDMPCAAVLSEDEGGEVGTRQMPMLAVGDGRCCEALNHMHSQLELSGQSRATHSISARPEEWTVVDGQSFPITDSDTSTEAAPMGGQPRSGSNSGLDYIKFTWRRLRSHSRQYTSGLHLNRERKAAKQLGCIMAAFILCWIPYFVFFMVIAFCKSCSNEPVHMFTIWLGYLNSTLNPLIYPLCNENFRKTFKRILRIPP

Regarding `CC(CN1c2ccccc2Sc2ccccc21)N(C)C` (centres unmarked) [promethazine, 10-(2-dimethylaminopropyl)phenothiazine], the sedation or drowsiness entry in data set [1] (in some patients, antihistamines now in use) is reported as “cause sedation or drowsiness in some patients”. Also, the anticholinergic activity entry in data set [2] is on record as “potent anticholinergic activity”.
Regarding `COc1ccc(CN(CCN(C)C)c2ccccn2)cc1` [pyrilamine], the sedation or drowsiness entry in data set [1] (in vivo) is “cause sedation or drowsiness in some patients”.
On to `CN(C)CCCN1c2ccccc2Sc2ccc(S(=O)(=O)O)cc21` [Example 2, 10-(3'-N,N-Dimethylaminopropyl)phenothiazine-2-sulphonic acid hemihydrate], for which the pA2 in data set [3] amounted to 7.8.
With `Cc1ccc(/C(=C\CN2CCCC2)c2ccccn2)cc1` [triprolidine], the sedation or drowsiness entry in data set [1] (in vivo) is reported as “cause sedation or drowsiness in some patients”.

Values taken from US4705854A, “Phenothiazine compounds” (priority 1984, dated 1987).
